In series [1] the test system is HIV-1IIIB infected MT-4 cells. The series can be described thus: Anti-HIV activity: protection of HIV-1IIIB infected MT-4 cells, MTT method. Type of series: cell-based. Particulars: MOI 0.01, culture for 5 days, concentration inhibiting 50% of cytotoxicity due to HIV infection. As to the method:
HIV-1IIIB infected MT-4 cells were added to 96-well microtiter plates (3.0×10^4/well, MOI (Multiplicity of infection): 0.01), together with test compounds at different concentrations immediately after the infection. After culture for 5 days in a carbon dioxide incubator at 37° C., the number of surviving cells was counted by MTT (tetrazolium) method (Pawels et al., J. Virol. Methods, 20, 309-321, 1988).

Another series relates to ICR male mice. Kind of series: Acute toxicity in ICR mice, intraperitoneal administration. The format is in vivo. Particulars: 3 per group, 50 mg/kg intraperitoneally, twice a day, for four days, number of dead animals after 5 days. As to the method: Acute toxicity of the antiviral drug was examined. Three groups of 7 week-old, ICR male mice, each group consisting of 3 mice, were bred for one week. The compounds prepared in the Examples, dissolved in a physiological saline solution or distilled water, were intraperitoneally administered at a dose of 50 mg/kg, twice a day, for four days. After 5 days, the number of dead animals was examined.

In series [1], `O=C(N[C@@H](CCNCc1ccccn1)C(=O)NCc1cccc2ccccc12)c1ccc(CNCc2ccccn2)cc1` [Compound No. 61, (S)-2-(4-(N-2-picolylamino)methylbenzoylamino)-4-(N-2-picolylamino)butyric acid 1-naphthalenemethylamide] showed an EC50 of 2.62 µM.

Consider `O=C(N[C@@H](CCCNC1CCCc2cccnc21)C(=O)NCc1cccc2ccccc12)c1ccc(CNC2CCCc3cccnc32)cc1` (stereo partly drawn) [Compound No. 64, (2S)-2-(4-((5,6,7,8-tetrahydroquinolin-8-yl)aminomethyl)benzoylamino)-5-((5,6,7,8-tetrahydroquinolin-8-yl)amino)valeric acid 1-naphthalenemethylamide], for which the EC50 in series [1] was found to be 0.114 µM. This EC50 is about 23-fold lower than that of the compound before.

With `N=C(N)NCCC[C@H](NC(=O)c1ccc(CNCc2ncc[nH]2)cc1)C(=O)NCc1cccc2ccccc12` [Compound No. 53, N^α-(4-(imidazol-2-ylmethyl)aminomethylbenzoyl)-L-arginine 1-naphthalenemethylamide], the EC50 in series [1] came to 0.15 µM.

`O=C(N[C@@H](CCCNC1CCCc2cccnc21)C(=O)NCc1cccc2ccccc12)c1ccc(CNCc2ncc[nH]2)s1` (stereo partly drawn) [Compound No. 16, (2S)-2-(5-(N-(imidazol-2-ylmethyl)aminomethyl)thiophene-2-carbonylamino)-5-(5,6,7,8-tetrahydroquinolin-8-yl)aminovaleric acid 1-naphthalenemethylamide] had an EC50 in series [1] of 0.633 µM.

In turn, `O=C(N[C@@H](CCCNC1CCCc2cccnc21)C(=O)NCc1cccc2ccccc12)c1ccc(CNCc2ncc[nH]2)c2ccccc12` (stereo partly drawn) [Compound No. 41, (2S)-2-(4-((N-imidazol-2-ylmethyl)aminomethyl)naphthoylamino)-5-(5,6,7,8-tetrahydroquinolin-8-ylamino)valeric acid 1-naphthalenemethylamide] came in with a half-maximal effective concentration (EC50) in series [1] of 0.035 µM. The Dead mouse in the series with ICR male mice is 0/3.

Consider `C[C@H](NC(=O)[C@H](CCCNC1=NCCN1)NC(=O)c1ccc(CNCc2ncc[nH]2)cc1)c1cccc2ccccc12` [Compound No. 110, (S)-2-(4-((N-imidazol-2-ylmethyl)aminomethyl)benzoyl)amino-5-(4,5-dihydroimidazol-2-yl)aminovaleric acid (1′S)-1′-(1-naphthyl)ethylamide], for which the EC50 in series [1] was found to be 0.344 µM.

In the case of `N=C(N)NCCC[C@H](NC(=O)c1ccc(CNCc2ccccn2)c2ccccc12)C(=O)NCc1cccc2ccccc12` [Compound No. 44, N^α-(4-(N-2-picolylaminomethyl)naphthoyl)-L-arginine 1-naphthalenemethylamide], the EC50 in series [1] was found to be 0.126 µM.

Compound `Cn1cccc1CNCCC[C@H](NC(=O)c1ccc(CNCc2ccccn2)cc1)C(=O)NCc1cccc2ccccc12` [Compound No. 5, (S)-2-(4-(N-2-picolylaminomethyl)benzoylamino)-5-((1-methylpyrrol-2-ylmethyl)amino)valeric acid 1-naphthalenemethylamide] displayed a half-maximal effective concentration (EC50) in series [1] of 0.804 µM.

With `C[C@H](NC(=O)[C@H](CCCNC(=N)N)NC(=O)c1ccc(CNCc2ccccn2)c2ccccc12)c1cccc2ccccc12` [Compound No. 99, N^α-(4-(N-2-picolylaminomethyl)naphthoyl)-L-arginine (1′S)-1′-(1-naphthyl)ethylamide], in the series on ICR male mice, the Dead mouse is recorded as 0/3.

As for `C[C@H](NC(=O)[C@H](CCCNC1=NCCCN1)NC(=O)c1ccc(CNCc2ncc[nH]2)cc1)c1cccc2ccccc12` [Compound No. 112, (S)-2-(4-((N-imidazol-2-ylmethyl)aminomethyl)benzoyl)amino-5-(3,4,5,6-tetrahydropyrimidine-2-yl)aminovaleric acid (1′S)-1′-(1-naphthyl)ethylamide], the EC50 in series [1] was 0.88 µM.

The compound `C[C@H](NC(=O)[C@H](CCCNC(=N)N)NC(=O)c1ccc(CNCc2ncc[nH]2)c2ccccc12)c1cccc2ccccc12` [Compound No. 49, N^α-(4-(imidazol-2-ylmethyl)aminomethylnaphthoyl)-L-arginine(1′S)-(1′-(1-naphthyl)ethyl)amide] displayed an EC50 in series [1] of 0.086 µM. Also, in the series on ICR male mice, the Dead mouse is reported as 0/3.

For `C[C@H](NC(=O)[C@H](CCCNC(=N)N)NC(=O)c1ccc(CNCc2nccn2C)c2ccccc12)c1cccc2ccccc12` [Compound No. 97, N^α-(4-((N-(1-methylimidazole-2-ylmethyl)amino)methyl)naphthalene-1-carbonyl)-L-arginine (1′S)-1′-(1-naphthyl)ethylamide], the Dead mouse with ICR male mice was 0/3.

As to `Cn1cccc1CNCCC[C@H](NC(=O)c1ccc(CNCc2nccn2C)cc1)C(=O)NCc1cccc2ccccc12` [Compound No. 30, (S)-2-(4-((1-methylimidazol-2-ylmethyl)aminomethyl)benzoylamino)-5-((1-methylpyrrol-2-ylmethyl)amino)valeric acid 1-naphthalenemethylamide], the EC50 in series [1] was 0.662 µM.

With `C[C@H](NC(=O)[C@H](CCCNC1CCCc2cccnc21)NC(=O)c1ccc(CNCc2nccn2C)cc1)c1cccc2ccccc12` (stereo partly shown) [Compound No. 107], the response in series [1] was half-maximal at 0.035 µM (EC50). For the same compound, in the series with ICR male mice, the Dead mouse is reported as 0/3.

`Cn1ccnc1CNCc1ccc(C(=O)N[C@@H](CCCNC2CCCc3cccnc32)C(=O)NCc2cccc3ccccc23)cc1` (stereo partly drawn) [Compound No. 96, (2S)-2-((1-methylimidazol-2-ylmethyl)aminomethyl)benzoylamino-5-(5,6,7,8-tetrahydroquinolyl-8-yl)aminovaleric acid 1-naphthalenemethyleneamide] came in with an EC50 in series [1] of 0.034 µM. Further, the Dead mouse with ICR male mice was 0/3.

Turning to `C[C@H](NC(=O)[C@H](CCCNC1CCCc2cccnc21)NC(=O)c1ccc(CNCc2ccccn2)cc1)c1cccc2ccccc12` (stereo partly drawn) [Compound No. 91, (2S)-2-(4-(N-2-picolylaminomethyl)benzoyl)amino-5-(5,6,7,8-tetrahydroquinolin-8-yl)aminovaleric acid (1′S)-1′-(1-naphthyl)ethylamide], the EC50 in series [1] is 0.138 µM. That is a sub-micromolar value.

Regarding `O=C(N[C@@H](CCCNC1CCCc2cccnc21)C(=O)NCCc1c[nH]c2ccccc12)c1ccc(CNCc2ccccn2)c2ccccc12` (stereo partly drawn) [Compound No. 92, (2S)-2-(4-(N-2-picolylaminomethyl)naphthoyl)amino-5-(5,6,7,8-tetrahydroquinolin-8-yl)aminovaleric acid 2-(3-indolyl)ethylamide], the Dead mouse with ICR male mice is listed as 0/3.

Consider `C[C@H](NC(=O)[C@H](CCCNC1CCCc2cccnc21)NC(=O)c1ccc(CNCc2ccccn2)c2ccccc12)c1cccc2ccccc12` (stereo partly drawn) [Compound No. 85, (2S)-2-(4-(N-2-picolylaminomethyl)naphthoyl)amino-5-(5,6,7,8-tetrahydroquinolin-8-yl)aminovaleric acid (1′S)-1′-(1-naphthyl)ethylamide], for which, in series [1], the response was half-maximal at 0.029 µM (EC50).

Take `C[C@H](NC(=O)[C@H](CCCNC1CCCc2cccnc21)NC(=O)c1ccc(CNCc2ncc[nH]2)cc1)c1cccc2ccccc12` (stereo partly shown) [Compound No. 106]: the EC50 in series [1] is 0.025 µM. The Dead mouse with ICR male mice is 0/3.

In series [1], `C[C@H](NC(=O)[C@H](CCCNC(=N)N)NC(=O)c1ccc(CNCc2ncc[nH]2)cc1)c1cccc2ccccc12` [Compound No. 95, N^α-4-(N-2-(imidazol-2-ylmethyl)aminomethyl)benzoyl-L-arginine (1′S)-1′-(1-naphthyl)ethylamide] registered an EC50 of 0.175 µM. That is a sub-micromolar value.

On to `O=C(N[C@@H](CCCNC1CCCc2cccnc21)C(=O)NCc1cccc2ccccc12)c1ccc(CNCc2ncc[nH]2)cc1` (stereo partly drawn) [Compound No. 39, (2S)-2-(4-((N-imidazol-2-ylmethyl)aminomethyl)benzoylamino)-5-(5,6,7,8-tetrahydroquinolin-8-ylamino)valeric acid 1-naphthalenemethylamide], for which, in the series on ICR male mice, the Dead mouse was 0/3.

Consider `O=C(N[C@@H](CCCNC1CCCc2cccnc21)C(=O)NCc1cccc2ccccc12)c1ccc(CNCc2ccccn2)cc1` (stereo partly drawn) [Compound No. 65, (2S)-2-(4-(N-2-picolylaminomethyl)benzoylamino)-5-((5,6,7,8-tetrahydroquinolin-8-yl)amino)valeric acid 1-naphthalenemethylamide], for which a half-maximal response in series [1] (EC50) required 0.093 µM. Further, the Dead mouse in the series with ICR male mice is recorded as 0/3.

The compound `O=C(N[C@@H](CCCNCc1ccccn1)C(=O)NCc1cccc2ccccc12)c1ccc(CNCc2ccccn2)cc1` [Compound No. 60, (S)-2-(4-(N-2-picolylaminomethyl)benzoylamino)-5-(N-2-picolylamino)valeric acid 1-naphthalenemethylamide] came in with an EC50 in series [1] of 0.158 µM.

In series [1], `NC(N)=NCCC[C@H](NC(=O)c1ccc(CNCc2ccccn2)cc1)C(=O)NCc1cccc2ccccc12` [Compound No. 43, N^α-(4-(N-2-picolylaminomethyl)benzoyl)-L-arginine 1-naphthalenemethylamide] showed an EC50 of 0.118 µM.

In series [1], `C[C@H](NC(=O)[C@H](CCCNC1CCCc2cccnc21)NC(=O)c1ccc(CNCc2ccccn2)nc1)c1cccc2ccccc12` (stereo partly drawn) [Compound No. 83, (2S)-2-(2-(N-2-picolylaminomethyl)pyridin-5-ylcarbonyl)amino-5-(5,6,7,8-tetrahydroquinolin-8-yl)aminovaleric acid (1′S)-1′-(1-naphthyl)ethylamide] returned an EC50 of 0.121 µM. The EC50 values of the last two compounds are within 1.5-fold of each other.

In turn, `O=C(N[C@@H](CCCNCc1ncc[nH]1)C(=O)NCc1cccc2ccccc12)c1ccc(CNCc2ncc[nH]2)cc1` [Compound No. 21, (S)-2-(4-((imidazol-2-ylmethyl)aminomethyl)benzoylamino)-5-((imidazol-2-ylmethyl)amino)valeric acid 1-naphthalenemethylamide] yielded an EC50 in series [1] of 0.828 µM.

With `C[C@H](NC(=O)[C@H](CCCNC1CCCc2cccnc21)NC(=O)c1ccc(CNCc2ncc[nH]2)c2ccccc12)c1cccc2ccccc12` (stereo partly shown) [Compound No. 57], a half-maximal effect in series [1] (EC50) was put at 0.082 µM. In the series with ICR male mice, the Dead mouse is 0/3.

(Values after patent publication US7098215B2, “Nitrogenous compounds and antiviral drugs containing the same” (Kureha Chemical Industry Co., Ltd., priority 2000, dated 2006).)
